pEC50: −log10 of the molar value. Entries after “also recorded” stand apart in the source; their conditions may differ. Read-outs that look alike come from different tables or passages of the source.
Columns and labels:
FOXO3 = experiment: qPCR analysis of FOXO3-regulated genes; assay type: cell-based, human; settings: Homo sapiens, 24 h, Assay 10(m), at 10 uM, qPCR
Procedure: (§1) For qPCR analysis, WI-38 cells were treated with small molecules (at 10 μM) (biological quadruplicates) for 24 hrs and processed for RNA isolation and reverse transcription (RT) with the Cells-to-Ct Kit (Life Technologies), following manufacturer's instructions. RT products were diluted with H2O and used for qPCR analysis on an ABI 7300 system (Life Technologies) (technical triplicates). Relative expression levels of target genes were normalized to the genes B2M, PPIA and GAPDH. To knock down the expression of FOXO3 or NRF2, WI-38 cells were transfected, using the RNAiMAX reagents (Life Technologies), with siRNA oligos (at 10 nM final concentration, 10 ml culture medium) for FOXO3 (Life Technologies) or NRF2 (Integrated DNA Technologies) on 10-cm petri dishes for 36 hrs, and then detached and aliquoted onto 96-well (for qPCR analysis) or 384-well plates (for H2O2-stress treatment). ˜24 hrs later, small molecules were introduced and incubated with cells for 24 hrs. Cells were then either processed with the Cells-to-Ct Kit to prepare RT products for qPCR analysis or subjected to H2O2 (700 μM) for 3 hrs and assayed for viability. The knockdown efficiency of FOXO3 or NRF2 was checked at 36 hrs post-transfection and at the end as well.
(§2) For qPCR analysis, WI-38 cells were treated with small molecules (at 10 μM) (biological quadruplicate) for 24 hrs and processed for RNA isolation and reverse transcription (RT) with the Cells-to-Ct Kit (Life Technologies), following manufacturer's instructions. RT products were diluted with H2O and used for qPCR analysis on a LightCycler 480 system (Roche) (technical triplicates). Relative expression levels of target genes were normalized to the genes B2M, PPIA and GAPDH. To knock down the expression of FOXO3 or NRF2, WI-38 cells were transfected with siRNA oligos (at 10 nM final concentration) for FOXO3 (Life Technologies) or NRF2 on 10-cm petri dish for 36 hrs, and then detached and aliquoted onto 96-well plates. ˜24 hrs later, small molecules were introduced and incubated with cells for 24 hrs. Cells were then processed with the Cells-to-Ct Kit to prepare RT products for qPCR analysis. The knockdown efficiency of FOXO3 or NRF2 was checked at 36 hrs post-transfection and at the end as well.
Many perturbations that increase lifespan and stress resistance in animals do so in a FOXO-dependent fashion (Kenyon, 2010c). Humans have several FOXO genes, but FOXO3, which promotes stress resistance in mammalian cell culture (Kops et al., 2002; Nemoto and Finkel, 2002; Tran et al., 2003), is the one that has been linked to exceptional longevity in humans (Anselmi et al., 2009; Flachsbart et al., 2009; Li et al., 2009; Pawlikowska et al., 2009; Soerensen et al., 2010; Willcox et al., 2008). FOXO1, in contrast, appears to be responsible for some symptoms of diabetes in mouse models (Cheng and White, 2011). For this reason, applicants have focused on analyzing potential ability of our small molecules to activate FOXO3. […] Another 4 molecules (Gr-7A, Gr-7C, O12 and O23) could induce robust expression (greater than 1.5-fold) of at least 2 FOXO3 target genes.

NRF2 = experiment: qPCR analysis of NRF2-regulated genes; assay type: cell-based, human; settings: Homo sapiens, 24 h, Assay 12(o), at 10 uM, qPCR
Procedure: as §1, §2
NRF2/SKN-1, the oxidative stress and xenobiotic phase 2 detoxification protein, can extend animal lifespan (Sykiotis and Bohmann, 2008; Tullet et al., 2008). Applicants analyzed these small molecules for their ability to increase the expression of NRF2-regulated genes, including HMOX1 (heme oxygenase (decycling) 1; anti-oxidant), NQO1 (NAD(P)H dehydrogenase, quinone 1; phase 2 detoxification enzyme), GCLC (glutamate-cysteine ligase, catalytic) and GSTM1 (glutathionine S transferase) (Hur and Gray, 2011; Suzuki et al., 2013).

WI-38 cells [1] = experiment: CdCl2 (cadmium) resistance assay; assay type: cell-based, human; settings: YES/NO; for Assay 2: Cadmium-resistant: * indicates partial
Procedure: (§3) For many stress conditions tested previously, one significant correlation to longevity is the cellular resistance to H2O2 or CdCl2. Applicants then tested these small molecules, at five different final concentrations (0.25 μM to 20 μM), for cadmium and MMS resistance in WI-38 cells.
(§4) The setups on 384-well plates and incubation times were the same as for H2O2 until the time of incubation with the stressors, which was 12 hours for both cadmium and MMS assays. Applicants tested several conditions, including conditions used to assay fibroblasts from long-lived animals (Salmon et al., 2005). These conditions produced better results with the positive controls (KEAP1 and AKT1 siRNAs) in the MMS assay. Thus, for MMS, the cells were shifted from growth media—OptiMEM+10% FBS, to DMEM (Gibco)+2% BSA (no serum) just before adding small molecules, which occurred 24 hours before MMS addition.
(§5) Isolated small molecules were tested for MMS and cadmium resistance twice in two independent assays. Each small molecule was analyzed at five different concentrations (0.25 μM to 20 μM final concentration), with technical triplicates for each dose. Data were analyzed using a global variance t-test.

WI-38 cells [2] = experiment: MMS resistance assay; assay type: cell-based, human; settings: YES/NO; for Assay 3: MMS-resistant: * indicates partial; for Assay 5: Triple resistant: H2O2, cadmium and MMS
Procedure: as §3, §4, §5

WI-38 cells [3] = settings: Assay 8(k); without H2O2, at 10 uM
Procedure: WI-38 cells were seeded on 384-well plates for 24 hrs and then incubated with small molecules for 24 hrs. […] Images were collected on an INCell Analyzer 2000 (GE) and analyzed with the Developer software.

WI-38 cells [4] = settings: for Assay 1: H2O2-resistant: YES/NO, if NO, possibly due to repeated freezing/thawing of stocks; for pEC50: read-out: Est. ED50, dose response 0.6-20 μM, H2O2-resistance
[5] = tested on: human dermal fibroblast (HDF) primary cells; experiment: H2O2-resistance in primary human dermal fibroblasts; assay type: cell-based; settings: YES/NO
C. elegans = C. elegans lifespan assays (liquid and plate); assay type: in vivo, Caenorhabditis elegans; settings: for ILS at 66 µM: Caenorhabditis elegans
human PARP1 = biological target: T1, human PARP1 (Homo sapiens, UniProt P09874); experiment: PARP inhibitor assay (HT Fluorescent Homogeneous PARP Inhibition Assay Kit); assay type: biochemical; settings: 10 μM, in vitro
T1 construct: purchased Trevigen
T1 sequence (P09874 whole entry): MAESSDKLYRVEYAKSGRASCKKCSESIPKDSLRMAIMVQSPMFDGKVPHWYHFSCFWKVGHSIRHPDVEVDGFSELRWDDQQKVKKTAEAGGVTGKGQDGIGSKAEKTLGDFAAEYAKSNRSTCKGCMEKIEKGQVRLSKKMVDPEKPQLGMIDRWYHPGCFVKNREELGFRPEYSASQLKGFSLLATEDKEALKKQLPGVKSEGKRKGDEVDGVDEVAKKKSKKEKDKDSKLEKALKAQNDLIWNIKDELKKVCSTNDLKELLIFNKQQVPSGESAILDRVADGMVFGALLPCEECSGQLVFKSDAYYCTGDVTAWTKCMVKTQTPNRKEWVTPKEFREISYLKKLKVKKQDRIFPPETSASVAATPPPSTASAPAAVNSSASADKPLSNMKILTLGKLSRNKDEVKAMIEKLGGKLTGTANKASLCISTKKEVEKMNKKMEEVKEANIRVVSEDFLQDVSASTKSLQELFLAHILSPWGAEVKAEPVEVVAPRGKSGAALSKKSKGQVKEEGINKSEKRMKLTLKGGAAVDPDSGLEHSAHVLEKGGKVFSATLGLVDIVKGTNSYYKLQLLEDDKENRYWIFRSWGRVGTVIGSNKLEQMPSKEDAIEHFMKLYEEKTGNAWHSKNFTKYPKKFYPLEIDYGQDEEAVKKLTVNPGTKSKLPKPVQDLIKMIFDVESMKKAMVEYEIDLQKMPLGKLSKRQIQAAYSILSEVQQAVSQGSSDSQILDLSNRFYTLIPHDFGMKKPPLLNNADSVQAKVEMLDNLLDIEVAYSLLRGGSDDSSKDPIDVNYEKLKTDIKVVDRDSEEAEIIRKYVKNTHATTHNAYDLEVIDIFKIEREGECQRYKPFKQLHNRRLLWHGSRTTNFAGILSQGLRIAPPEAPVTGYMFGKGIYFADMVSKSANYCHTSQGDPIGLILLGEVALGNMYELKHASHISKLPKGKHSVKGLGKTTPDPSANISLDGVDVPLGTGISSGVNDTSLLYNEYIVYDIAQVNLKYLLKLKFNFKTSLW
Procedure: (§6) The assay was performed with the HT Fluorescent Homogeneous PARP Inhibition Assay Kit (Trevigen), following manufacturer's instructions. Briefly, nicotinamide adenine dinucleotide, human PARP1 and activated-DNA solution was added onto a 96-well plate. 54 repurchased small molecules, at 10 μM final concentration, were introduced onto the 96-well assay plate and incubated in a humid chamber at room temperature for 30 min in dark. Cycling mixture, with resazurin and cycling enzyme diaphorase, was then added and incubated further for 1 hr in dark. Reaction was terminated by adding the stopping buffer.
as §6, with “(Trevegen),” for “(Trevigen),”, “stopped” for “terminated”

[6] = tested on: PC12 cells expressing poly(Q)103-Htt-EGFP; experiment: Poly(Q) toxicity & viability analysis (cellular model of Huntington's disease); assay type: cell-based, rat; settings: 10 uM; YES/NO
Procedure: Viability assays were performed as described before (Aiken et al., 2004). PC12 cells that stably express the inducible poly(Q)103-Htt-EGFP were grown in culture. […] Cell viability was analyzed 48 hrs later by measuring ATP content with CellTiter-Glo.
Toxic protein aggregation is a key feature of many age-related neurodegenerative diseases, including Alzheimer's and Huntington's disease (Caughey and Lansbury, 2003; Ross and Poirier, 2004). A number of animal models (Phillips et al., 2009) and cell models (Schlachetzki et al., 2013) have been established to study these diseases. For this purpose, PC12 rat pheochromocytoma cells display neuronal features and produce neurotransmitters and have been used extensively to study neuronal phenotypes, including synaptic transmission and neurological diseases. […] In this model, induced expression of poly(Q)103-Htt-EGFP could lead to the formation of aggregates and exert substantial toxicity in cells.

[7] = read-out: Induction of NRF2-regulated genes: HMOX1 normalized fold-change
[8] = Assay 2(z), 1.0 × 10^9 bacteria/ml, wild type + FuDR (2012 July), read-out: Lifespan assay in liquid
[9] = Assay 3(aa), 2.5 × 10^9 bacteria/ml, wild type + FuDR, read-out: Lifespan assay in liquid
[10] = Assay 4(ab), 2.0 × 10^10 bacteria/ml, CF512 worms, no FuDR, read-out: Lifespan assay on plates
[11] = Assay 5(ac), 1.0 × 10^11 bacteria/ml, CF512 worms, no FuDR, read-out: Lifespan assay on plates
[12] = Assay 6(ad), 2.0 × 10^10 bacteria/ml, CF512 worms, no FuDR, read-out: Lifespan assay on plates
[13] = Assay 7(ae), 1.0 × 10^11 bacteria/ml, CF512 worms, no FuDR, read-out: Lifespan assay on plates

CO/C(O)=C1\C(C)=NC2=C(C(=O)CC(c3cccs3)C2)C1c1ccc(F)c(F)c1 (stereo not drawn) [O5]
fold induction at 10 µM (FOXO3; read-out: Induction of FOXO3-regulated genes: GADD45A normalized fold-change): 0.45 | fold induction at 10 µM (FOXO3; read-out: Induction of FOXO3-regulated genes: SOD2 normalized fold-change): 0.77 | fold induction at 10 µM (NRF2; [7]): 2.15 | Assay 4: H2O2- & Cd-resistant (WI-38 cells [1]): YES | Assay 2: Cadmium-resistant (WI-38 cells [1]): YES | Assay 3: MMS-resistant (WI-38 cells [2]): YES | Assay 5: Triple resistant (WI-38 cells [2]): YES | PI cell-death imaging without H2O2 (indicating potential toxicity) (WI-38 cells [3]): YES | Assay 1: H2O2-resistant (WI-38 cells [4]): YES | pEC50 (WI-38 cells [4]): 4.70 | Assay 6: H2O2-resistant, at 10 uM, human dermal fibroblast (HDF) primary cells [5]: YES | ILS at 66 µM (C. elegans; [8]): 48.9% | ILS at 66 µM (C. elegans; [9]): 18.9% | ILS at 66 µM (C. elegans; [10]): 46.2% | ILS at 66 µM (C. elegans; [11]): 46.3% | ILS at 66 µM (C. elegans; [12]): 10.2% | ILS at 66 µM (C. elegans; [13]): 32%

CN1CCC=C(Cc2nnc(O)c3ccccc23)C1 [Gr-2D]
Inhibition of PARP1 (human PARP1): inhibitors of PARP1 | pEC50 (WI-38 cells [4]): 5.47

O=C1NC(=O)c2cccc3cccc1c23 [O7]
Inhibition of PARP1 (human PARP1): confirmed as PARP inhibitors | Assay 4: H2O2- & Cd-resistant (WI-38 cells [1]): YES | Assay 2: Cadmium-resistant (WI-38 cells [1]): YES | Assay 3: MMS-resistant (WI-38 cells [2]): YES | Assay 5: Triple resistant (WI-38 cells [2]): YES | Assay 1: H2O2-resistant (WI-38 cells [4]): YES | pEC50 (WI-38 cells [4]): 5.26 | Assay 6: H2O2-resistant, at 10 uM, human dermal fibroblast (HDF) primary cells [5]: YES | Assay 20: Huntington's poly-Q toxicity attenuation [6]: YES | ILS at 66 µM (C. elegans; [8]): 19.7% | ILS at 66 µM (C. elegans; [9]): 26% | ILS at 66 µM (C. elegans; [10]): 33.7% | ILS at 66 µM (C. elegans; [11]): 10.2% | ILS at 66 µM (C. elegans; [12]): 5.8% | ILS at 66 µM (C. elegans; [13]): -10.5% | Lifespan extension of C. elegans (C. elegans; across independent trials): 10%-34% | Trials with lifespan extension (C. elegans; positive of total trials): 4 of 4

Oc1nnc(Cc2ccccc2)c2ccccc12 [Gr-2C]
Inhibition of PARP1 (human PARP1): inhibitors of PARP1; also recorded: PARP inhibitors | fold induction at 10 µM (FOXO3; read-out: Induction of FOXO3-regulated genes: TXNIP normalized fold-change): 1.2 | fold induction at 10 µM (NRF2; [7]): 1.23 | Assay 4: H2O2- & Cd-resistant (WI-38 cells [1]): YES | Assay 2: Cadmium-resistant (WI-38 cells [1]): YES | Assay 3: MMS-resistant (WI-38 cells [2]): YES | Assay 5: Triple resistant (WI-38 cells [2]): YES | Assay 1: H2O2-resistant (WI-38 cells [4]): YES | pEC50 (WI-38 cells [4]): 5.51 | Assay 6: H2O2-resistant, at 10 uM, human dermal fibroblast (HDF) primary cells [5]: YES | ILS at 66 µM (C. elegans; [8]): 15.3% | ILS at 66 µM (C. elegans; [9]): 0.1% | ILS at 66 µM (C. elegans; [10]): 7.6%

CNS(=O)(=O)c1cc(-c2nnc(O)c3ccccc23)ccc1C [Gr-2A]
Inhibition of PARP1 (human PARP1): inhibitors of PARP1; also recorded: PARP inhibitors | Assay 4: H2O2- & Cd-resistant (WI-38 cells [1]): YES | Assay 2: Cadmium-resistant (WI-38 cells [1]): YES | Assay 3: MMS-resistant (WI-38 cells [2]): YES | Assay 5: Triple resistant (WI-38 cells [2]): YES | Assay 1: H2O2-resistant (WI-38 cells [4]): YES | pEC50 (WI-38 cells [4]): 5.52 | Assay 6: H2O2-resistant, at 10 uM, human dermal fibroblast (HDF) primary cells [5]: YES | ILS at 66 µM (C. elegans; [8]): 22.7% | ILS at 66 µM (C. elegans; [9]): 10.8% | ILS at 66 µM (C. elegans; [10]): 11.4%

Cc1sc2nc(SCC(=O)N3CCOCC3)nc(O)c2c1C [O3]
Inhibition of PARP1 (human PARP1): inhibitors of PARP1; also recorded: PARP inhibitors | fold induction at 10 µM (NRF2; read-out: Induction of NRF2-regulated genes: NQO1 normalized fold-change): 1.21 | Assay 4: H2O2- & Cd-resistant (WI-38 cells [1]): YES | Assay 2: Cadmium-resistant (WI-38 cells [1]): YES | Assay 3: MMS-resistant (WI-38 cells [2]): YES | Assay 5: Triple resistant (WI-38 cells [2]): YES | Assay 1: H2O2-resistant (WI-38 cells [4]): YES | pEC50 (WI-38 cells [4]): 4.70 | Assay 6: H2O2-resistant, at 10 uM, human dermal fibroblast (HDF) primary cells [5]: YES | ILS at 66 µM (C. elegans; [8]): 14.1% | ILS at 66 µM (C. elegans; [9]): 14.8% | ILS at 66 µM (C. elegans; [10]): 15.9% | ILS at 66 µM (C. elegans; [11]): 12% | ILS at 66 µM (C. elegans; [12]): 8.7% | ILS at 66 µM (C. elegans; [13]): 1.4%

Reference: patent US11413278B2, “Compounds and methods for promoting stress resistance” (priority 2015, dated 2022)
